# Results from the supplement of paper PMC8671470.
# ± gives the standard deviation of the averaged measurements.
# Test system: HL-60
# Assay: cell viability (% survival relative to DMSO control); higher = less cytotoxic
# Settings: 0.001 µM; 72 h; co-treatment: AZD3965 100 nM
# In short: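 In 384-well plates, the full library was rescreened in duplicate on HL-60 cells in RPMI 1640 with 10% FBS, at 1–10,000 nM in five tenfold concentrations, for 72 h at 37 °C, 5% CO2. Each run also held DMSO or 100 nM of one of three metabolic inhibitors. Viability was measured by CellTiter-Glo and normalised to DMSO wells and to wells with proteasome inhibitor, present at 10 μM. Any area under the curve comes from four-parameter log-logistic fitting with drc and PharmacoGx.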
row,SMILES,cell viability
1,O=C1O/C(=C/Br)CCC1c1cccc2ccccc12 (configuration not stated) [Bromoenol Lactone],95.1 ± 10%
2,N#CC(C#N)=NNc1ccc(OC(F)(F)F)cc1 [FCCP],101 ± 4.1%
3,O=C(O)Cn1nnc(-c2cc(N3CCC(Oc4cc(F)ccc4Br)CC3)no2)n1 [MK-8245],94.6 ± 1.5%
4,C=C(C=NNC(=N)N)NNC(=N)N [Mitoguazone],98 ± 2.1%
5,COc1cc(/C=C/C(=O)N2CCC=CC2=O)cc(OC)c1OC [Piperlongumine],101 ± 2.1%
6,CC[C@@]1(O)C(=O)OCc2c1cc1n(c2=O)Cc2cc3c(CN(C)C)c(O)ccc3nc2-1 [Topotecan],99.6 ± 2.4%

# Same assay, conditions: 0.001 µM; 72 h; co-treatment: DMSO vehicle
row,SMILES,cell viability
1,O=C1O/C(=C/Br)CCC1c1cccc2ccccc12 (configuration not stated) [Bromoenol Lactone],100 ± 2.4%
2,N#CC(C#N)=NNc1ccc(OC(F)(F)F)cc1 [FCCP],99.6 ± 1.4%
3,O=C(O)Cn1nnc(-c2cc(N3CCC(Oc4cc(F)ccc4Br)CC3)no2)n1 [MK-8245],99.9 ± 1.1%
4,C=C(C=NNC(=N)N)NNC(=N)N [Mitoguazone],99.2 ± 4.5%
5,COc1cc(/C=C/C(=O)N2CCC=CC2=O)cc(OC)c1OC [Piperlongumine],98.08 ± 0.7%
6,CC[C@@]1(O)C(=O)OCc2c1cc1n(c2=O)Cc2cc3c(CN(C)C)c(O)ccc3nc2-1 [Topotecan],101 ± 3.4%

# Same assay, conditions: 0.001 µM; 72 h; co-treatment: GSK2194069 100 nM
row,SMILES,cell viability
1,O=C1O/C(=C/Br)CCC1c1cccc2ccccc12 (configuration not stated) [Bromoenol Lactone],90.2 ± 14%
2,N#CC(C#N)=NNc1ccc(OC(F)(F)F)cc1 [FCCP],97.2 ± 4.7%
3,O=C(O)Cn1nnc(-c2cc(N3CCC(Oc4cc(F)ccc4Br)CC3)no2)n1 [MK-8245],96.6 ± 1.2%
4,C=C(C=NNC(=N)N)NNC(=N)N [Mitoguazone],101 ± 3.5%
5,COc1cc(/C=C/C(=O)N2CCC=CC2=O)cc(OC)c1OC [Piperlongumine],101 ± 4.2%
6,CC[C@@]1(O)C(=O)OCc2c1cc1n(c2=O)Cc2cc3c(CN(C)C)c(O)ccc3nc2-1 [Topotecan],91.07 ± 0.23%

# Same assay, conditions: 0.001 µM; 72 h; co-treatment: pictilisib 100 nM
row,SMILES,cell viability
1,O=C1O/C(=C/Br)CCC1c1cccc2ccccc12 (configuration not stated) [Bromoenol Lactone],96.5 ± 35%
2,N#CC(C#N)=NNc1ccc(OC(F)(F)F)cc1 [FCCP],98.3 ± 1.8%
3,O=C(O)Cn1nnc(-c2cc(N3CCC(Oc4cc(F)ccc4Br)CC3)no2)n1 [MK-8245],95.7 ± 1.8%
4,C=C(C=NNC(=N)N)NNC(=N)N [Mitoguazone],108 ± 1.3%
5,COc1cc(/C=C/C(=O)N2CCC=CC2=O)cc(OC)c1OC [Piperlongumine],97.3 ± 5%
6,CC[C@@]1(O)C(=O)OCc2c1cc1n(c2=O)Cc2cc3c(CN(C)C)c(O)ccc3nc2-1 [Topotecan],102 ± 5.5%

# Same assay, conditions: 0.01 µM; 72 h; co-treatment: AZD3965 100 nM
row,SMILES,cell viability
1,O=C1O/C(=C/Br)CCC1c1cccc2ccccc12 (configuration not stated) [Bromoenol Lactone],97 ± 6.7%
2,N#CC(C#N)=NNc1ccc(OC(F)(F)F)cc1 [FCCP],102 ± 4.2%
3,O=C(O)Cn1nnc(-c2cc(N3CCC(Oc4cc(F)ccc4Br)CC3)no2)n1 [MK-8245],102 ± 8.3%
4,C=C(C=NNC(=N)N)NNC(=N)N [Mitoguazone],102 ± 2.5%
5,COc1cc(/C=C/C(=O)N2CCC=CC2=O)cc(OC)c1OC [Piperlongumine],104 ± 7.3%
6,CC[C@@]1(O)C(=O)OCc2c1cc1n(c2=O)Cc2cc3c(CN(C)C)c(O)ccc3nc2-1 [Topotecan],98.4 ± 3.9%

# Same assay, conditions: 0.01 µM; 72 h; co-treatment: DMSO vehicle
row,SMILES,cell viability
1,O=C1O/C(=C/Br)CCC1c1cccc2ccccc12 (configuration not stated) [Bromoenol Lactone],99.8 ± 7.1%
2,N#CC(C#N)=NNc1ccc(OC(F)(F)F)cc1 [FCCP],94.6 ± 5%
3,O=C(O)Cn1nnc(-c2cc(N3CCC(Oc4cc(F)ccc4Br)CC3)no2)n1 [MK-8245],99.3 ± 1.8%
4,C=C(C=NNC(=N)N)NNC(=N)N [Mitoguazone],100.1 ± 0.87%
5,COc1cc(/C=C/C(=O)N2CCC=CC2=O)cc(OC)c1OC [Piperlongumine],100.5 ± 0.58%
6,CC[C@@]1(O)C(=O)OCc2c1cc1n(c2=O)Cc2cc3c(CN(C)C)c(O)ccc3nc2-1 [Topotecan],103 ± 4.6%

# Same assay, conditions: 0.01 µM; 72 h; co-treatment: GSK2194069 100 nM
row,SMILES,cell viability
1,O=C1O/C(=C/Br)CCC1c1cccc2ccccc12 (configuration not stated) [Bromoenol Lactone],92.4 ± 9.3%
2,N#CC(C#N)=NNc1ccc(OC(F)(F)F)cc1 [FCCP],102 ± 6.5%
3,O=C(O)Cn1nnc(-c2cc(N3CCC(Oc4cc(F)ccc4Br)CC3)no2)n1 [MK-8245],100 ± 4.3%
4,C=C(C=NNC(=N)N)NNC(=N)N [Mitoguazone],112 ± 10%
5,COc1cc(/C=C/C(=O)N2CCC=CC2=O)cc(OC)c1OC [Piperlongumine],102 ± 8.6%
6,CC[C@@]1(O)C(=O)OCc2c1cc1n(c2=O)Cc2cc3c(CN(C)C)c(O)ccc3nc2-1 [Topotecan],111 ± 3.9%

# Same assay, conditions: 0.01 µM; 72 h; co-treatment: pictilisib 100 nM
row,SMILES,cell viability
1,O=C1O/C(=C/Br)CCC1c1cccc2ccccc12 (configuration not stated) [Bromoenol Lactone],106 ± 18%
2,N#CC(C#N)=NNc1ccc(OC(F)(F)F)cc1 [FCCP],98.5 ± 4.9%
3,O=C(O)Cn1nnc(-c2cc(N3CCC(Oc4cc(F)ccc4Br)CC3)no2)n1 [MK-8245],96.7 ± 1.2%
4,C=C(C=NNC(=N)N)NNC(=N)N [Mitoguazone],120 ± 2.9%
5,COc1cc(/C=C/C(=O)N2CCC=CC2=O)cc(OC)c1OC [Piperlongumine],94.8 ± 5.8%
6,CC[C@@]1(O)C(=O)OCc2c1cc1n(c2=O)Cc2cc3c(CN(C)C)c(O)ccc3nc2-1 [Topotecan],98 ± 16%

# Same assay, conditions: 0.1 µM; 72 h; co-treatment: AZD3965 100 nM
row,SMILES,cell viability
1,O=C1O/C(=C/Br)CCC1c1cccc2ccccc12 (configuration not stated) [Bromoenol Lactone],98.2 ± 5.9%
2,N#CC(C#N)=NNc1ccc(OC(F)(F)F)cc1 [FCCP],82.8 ± 21%
3,O=C(O)Cn1nnc(-c2cc(N3CCC(Oc4cc(F)ccc4Br)CC3)no2)n1 [MK-8245],96.7 ± 7.1%
4,C=C(C=NNC(=N)N)NNC(=N)N [Mitoguazone],102 ± 1.6%
5,COc1cc(/C=C/C(=O)N2CCC=CC2=O)cc(OC)c1OC [Piperlongumine],102 ± 6.9%
6,CC[C@@]1(O)C(=O)OCc2c1cc1n(c2=O)Cc2cc3c(CN(C)C)c(O)ccc3nc2-1 [Topotecan],7.08 ± 1.3%

# Same assay, conditions: 0.1 µM; 72 h; co-treatment: DMSO vehicle
row,SMILES,cell viability
1,O=C1O/C(=C/Br)CCC1c1cccc2ccccc12 (configuration not stated) [Bromoenol Lactone],100 ± 1.4%
2,N#CC(C#N)=NNc1ccc(OC(F)(F)F)cc1 [FCCP],99.9 ± 2.1%
3,O=C(O)Cn1nnc(-c2cc(N3CCC(Oc4cc(F)ccc4Br)CC3)no2)n1 [MK-8245],97.87 ± 0.73%
4,C=C(C=NNC(=N)N)NNC(=N)N [Mitoguazone],97.8 ± 2.5%
5,COc1cc(/C=C/C(=O)N2CCC=CC2=O)cc(OC)c1OC [Piperlongumine],102.8 ± 0.73%
6,CC[C@@]1(O)C(=O)OCc2c1cc1n(c2=O)Cc2cc3c(CN(C)C)c(O)ccc3nc2-1 [Topotecan],11.5 ± 1.8%

# Same assay, conditions: 0.1 µM; 72 h; co-treatment: GSK2194069 100 nM
row,SMILES,cell viability
1,O=C1O/C(=C/Br)CCC1c1cccc2ccccc12 (configuration not stated) [Bromoenol Lactone],108 ± 7.8%
2,N#CC(C#N)=NNc1ccc(OC(F)(F)F)cc1 [FCCP],80.2 ± 26%
3,O=C(O)Cn1nnc(-c2cc(N3CCC(Oc4cc(F)ccc4Br)CC3)no2)n1 [MK-8245],101 ± 4.2%
4,C=C(C=NNC(=N)N)NNC(=N)N [Mitoguazone],102.2 ± 0.58%
5,COc1cc(/C=C/C(=O)N2CCC=CC2=O)cc(OC)c1OC [Piperlongumine],104.6 ± 1%
6,CC[C@@]1(O)C(=O)OCc2c1cc1n(c2=O)Cc2cc3c(CN(C)C)c(O)ccc3nc2-1 [Topotecan],10.4 ± 2.5%

# Same assay, conditions: 0.1 µM; 72 h; co-treatment: pictilisib 100 nM
row,SMILES,cell viability
1,O=C1O/C(=C/Br)CCC1c1cccc2ccccc12 (configuration not stated) [Bromoenol Lactone],110 ± 9.4%
2,N#CC(C#N)=NNc1ccc(OC(F)(F)F)cc1 [FCCP],94.6 ± 4.5%
3,O=C(O)Cn1nnc(-c2cc(N3CCC(Oc4cc(F)ccc4Br)CC3)no2)n1 [MK-8245],104 ± 1.7%
4,C=C(C=NNC(=N)N)NNC(=N)N [Mitoguazone],104 ± 6.1%
5,COc1cc(/C=C/C(=O)N2CCC=CC2=O)cc(OC)c1OC [Piperlongumine],94.9 ± 3%
6,CC[C@@]1(O)C(=O)OCc2c1cc1n(c2=O)Cc2cc3c(CN(C)C)c(O)ccc3nc2-1 [Topotecan],9.22 ± 2.9%

# Same assay, conditions: 1 µM; 72 h; co-treatment: AZD3965 100 nM
row,SMILES,cell viability
1,O=C1O/C(=C/Br)CCC1c1cccc2ccccc12 (configuration not stated) [Bromoenol Lactone],96.796 ± 0.025%
2,N#CC(C#N)=NNc1ccc(OC(F)(F)F)cc1 [FCCP],110 ± 1.1%
3,O=C(O)Cn1nnc(-c2cc(N3CCC(Oc4cc(F)ccc4Br)CC3)no2)n1 [MK-8245],94.6 ± 4.8%
4,C=C(C=NNC(=N)N)NNC(=N)N [Mitoguazone],93.1 ± 4.7%
5,COc1cc(/C=C/C(=O)N2CCC=CC2=O)cc(OC)c1OC [Piperlongumine],99.9 ± 3.3%
6,CC[C@@]1(O)C(=O)OCc2c1cc1n(c2=O)Cc2cc3c(CN(C)C)c(O)ccc3nc2-1 [Topotecan],3.55 ± 0.35%

# Same assay, conditions: 1 µM; 72 h; co-treatment: DMSO vehicle
row,SMILES,cell viability
1,O=C1O/C(=C/Br)CCC1c1cccc2ccccc12 (configuration not stated) [Bromoenol Lactone],96.4 ± 5.3%
2,N#CC(C#N)=NNc1ccc(OC(F)(F)F)cc1 [FCCP],104 ± 1.9%
3,O=C(O)Cn1nnc(-c2cc(N3CCC(Oc4cc(F)ccc4Br)CC3)no2)n1 [MK-8245],94.57 ± 0.71%
4,C=C(C=NNC(=N)N)NNC(=N)N [Mitoguazone],101 ± 2.3%
5,COc1cc(/C=C/C(=O)N2CCC=CC2=O)cc(OC)c1OC [Piperlongumine],97.9 ± 1.8%
6,CC[C@@]1(O)C(=O)OCc2c1cc1n(c2=O)Cc2cc3c(CN(C)C)c(O)ccc3nc2-1 [Topotecan],5.98 ± 0.24%

# Same assay, conditions: 1 µM; 72 h; co-treatment: GSK2194069 100 nM
row,SMILES,cell viability
1,O=C1O/C(=C/Br)CCC1c1cccc2ccccc12 (configuration not stated) [Bromoenol Lactone],89.2 ± 2.9%
2,N#CC(C#N)=NNc1ccc(OC(F)(F)F)cc1 [FCCP],102.3 ± 0.53%
3,O=C(O)Cn1nnc(-c2cc(N3CCC(Oc4cc(F)ccc4Br)CC3)no2)n1 [MK-8245],90.2 ± 5.6%
4,C=C(C=NNC(=N)N)NNC(=N)N [Mitoguazone],98.3 ± 1%
5,COc1cc(/C=C/C(=O)N2CCC=CC2=O)cc(OC)c1OC [Piperlongumine],87.9 ± 2.8%
6,CC[C@@]1(O)C(=O)OCc2c1cc1n(c2=O)Cc2cc3c(CN(C)C)c(O)ccc3nc2-1 [Topotecan],6.25 ± 0.94%

# Same assay, conditions: 1 µM; 72 h; co-treatment: pictilisib 100 nM
row,SMILES,cell viability
1,O=C1O/C(=C/Br)CCC1c1cccc2ccccc12 (configuration not stated) [Bromoenol Lactone],101.3 ± 0.12%
2,N#CC(C#N)=NNc1ccc(OC(F)(F)F)cc1 [FCCP],104 ± 12%
3,O=C(O)Cn1nnc(-c2cc(N3CCC(Oc4cc(F)ccc4Br)CC3)no2)n1 [MK-8245],90.7 ± 9.2%
4,C=C(C=NNC(=N)N)NNC(=N)N [Mitoguazone],112 ± 4.9%
5,COc1cc(/C=C/C(=O)N2CCC=CC2=O)cc(OC)c1OC [Piperlongumine],83.8 ± 8.6%
6,CC[C@@]1(O)C(=O)OCc2c1cc1n(c2=O)Cc2cc3c(CN(C)C)c(O)ccc3nc2-1 [Topotecan],5.76 ± 3%

# Same assay, conditions: 10 µM; 72 h; co-treatment: AZD3965 100 nM
row,SMILES,cell viability
1,O=C1O/C(=C/Br)CCC1c1cccc2ccccc12 (configuration not stated) [Bromoenol Lactone],93.5 ± 3.1%
